Assay results published in PMC4982073, “Structural and kinetic studies on RosA, the enzyme catalysing the methylation of 8‐demethyl‐8‐amino‐D‐riboflavin to the antibiotic roseoflavin” (The Febs Journal, 2016).
Like-named read-outs stand apart in the source and are kept apart here.

Assays:
[1] = biological target: T1, RosA (N,N-8-demethyl-8-amino-D-riboflavin dimethyltransferase) (Streptomyces davaonensis, UniProt K4RFM2); assay: isothermal titration calorimetry; assay type: binding
T1 construct: full length, hexahistidine-tagged (pET24a(+)rosA-His6, pFJ02), tag kept, E. coli Rosetta 2 (DE3); 353 amino acids; subunit 38 kDa, native 77 kDa, homodimer
Description: isothermal titration calorimetry on RosA (N,N-8-demethyl-8-amino-D-riboflavin dimethyltransferase)

[2] = biological target: T1, RosA (N,N-8-demethyl-8-amino-D-riboflavin dimethyltransferase); assay: initial rates of RoF formation at […] nm, Henderson plot (tight-binding inhibition); assay type: biochemical
[3] = biological target: N,N‐8‐demethyl‐8‐amino‐D‐riboflavin dimethyltransferase (RosA), hexahistidine‐tagged (Streptomyces davawensis); assay: SEC; Superdex 200 10/300 GL, 25 °C, 50 mM Tris-HCl pH 8.0 with 100 mM NaCl, 0.5 mL/min, calibrated with standard proteins; native mass about 77 kDa against a subunit mass of 38 kDa
[4] = substrate: C[S+](CC[C@H](N)C(=O)O)C[C@H]1O[C@@H](n2cnc3c(N)ncnc32)[C@H](O)[C@@H]1O; assay: purified protein; conditions: varied AF (20-100 μM), 50 mM Tris/HCl pH 8.0, 100 mM NaCl, 25 °C, random-order bi-bi
[5] = substrate: Cc1cc2nc3c(=O)[nH]c(=O)nc-3n(C[C@H](O)[C@H](O)[C@H](O)CO)c2cc1N; assay: purified protein; assay type: biochemical, Streptomyces davaonensis; conditions: varied SAM (20-250 μM), 50 mM Tris/HCl pH 8.0, 100 mM NaCl, 25 °C, random-order bi-bi

For `Cc1cc2nc3c(=O)[nH]c(=O)nc-3n(C[C@H](O)[C@H](O)[C@H](O)CO)c2cc1N` [AF], the Kd ([1]; read-out: AF) was 10 ± 1 µM.

In the case of `Cc1cc2nc3c(=O)[nH]c(=O)nc-3n(C[C@H](O)[C@H](O)[C@H](O)CO)c2cc1N(C)C` [RoF], the Kd ([1]; read-out: RoF) is reported as 0.8 ± 0.05 µM and the Ki [2] is reported as 27 µM.

In the case of `Nc1ncnc2c1ncn2[C@@H]1O[C@H](CSCC[C@H](N)C(=O)O)[C@@H](O)[C@H]1O` [SAH], the Kd ([1]; read-out: SAH) is reported as 2 ± 0.1 µM and the Ki [2] is reported as 7 µM.

In the case of `C[S+](CC[C@H](N)C(=O)O)C[C@H]1O[C@@H](n2cnc3c(N)ncnc32)[C@H](O)[C@@H]1O` (some centres unmarked) [SAM], the Kd [1] is reported as 22 ± 2 µM.

Molecule “N,N‐8‐demethyl‐8‐amino‐D‐riboflavin dimethyltransferase (RosA), hexahistidine‐tagged (enzyme)” has a stoichiometry N [3] of 2.

B1: RosA (N,N-8-demethyl-8-amino-D-riboflavin dimethyltransferase) (Streptomyces davaonensis JCM 4913) (protein)
chain: MRPEPTEHPERTAAQRLYQYNVDLKVAFVLYAVAKLHLPDLLADGPRTTADLAAATGSDPSRLRRLLRAAAGADALREVPEDSFELAPMGDLLRSGHPRSMRGMTTFFAEPDVLAAYGDLVESVRTGVPAFQLRHREPLYDFLARPQHKEVRDEFDAAMVEFGQYFADDFLTSFDFGRFTRFADIGGGRGQFLAGVLTAVPSSTGVLVDGPAVAASAHKFLASQNLTERVEVRIGDFFDVLPTGCDAYVLRGVLEDWADADAVRLLVRIRQAMGDAPEARLLILDSVIGETGELGKVLDLDMLVLVEGEHRTRAQWDDLLARAGFDIVGIHPAGDVWAVIECRGTAG
notes: full length, hexahistidine-tagged (pET24a(+)rosA-His6, pFJ02), tag kept, E. coli Rosetta 2 (DE3); 353 amino acids; subunit 38 kDa, native 77 kDa, homodimer
With B1 the Km [4] was 70 µM, the kcat [4] was 0.001 s⁻¹ and the Km [5] was 4 µM. For the same molecule, the kcat [5] was 0.001 s⁻¹.
